Laboratory results taken from article PMC3152597 (Bioorganic & medicinal chemistry, 2011).
“Also recorded” adds a separate entry of the source. Values belong to the molecule of their own block, whether it stands above or below them.

Columns and labels:
[1] = tested on: two melanoma (A375, WM164) and four prostate cancer cell lines (LNCaP, PC-3, Du 145, PPC-1); assay: Antiproliferative activity, all six cancer cell lines together; format: cell-based, human; settings: for IC50: Homo sapiens, read-out: IC50 values (range over the cancer cell lines); for fold decrease in potency compared with parent compound: average IC50 versus parent ABI-I compound (1a, 1c)
MDR cancer cell lines = assay: Antiproliferative activity, MDR cancer cell lines; format: cell-based; settings: Homo sapiens, read-out: potency on resistant (MDR) cancer cell lines (range)
Bovine brain tubulin = assay: In vitro microtubule polymerization assay; format: biochemical; settings: after 15 min, absorbance at 340 nm, 37 °C
DU145-TxR = assay: Antiproliferative activity, paclitaxel-resistant DU145-TxR; format: cell-based, human
PC-3-TxR = assay: Antiproliferative activity, paclitaxel-resistant PC-3-TxR; format: cell-based, human; settings: IC50 on PC-3-TxR divided by IC50 on PC-3
[2] = tested on: nonresistant cancer cell lines; assay: Antiproliferative activity, nonresistant cancer cell lines; format: cell-based; settings: Homo sapiens, read-out: potency on nonresistant cancer cell lines (range)
[3] = In vitro metabolic stability, human liver microsomes; settings: 50 µM; LC-MS/MS metabolite identification
[4] = In vitro metabolic stability, mouse liver microsomes; settings: 50 µM; LC-MS/MS metabolite identification
[5] = In vitro metabolic stability, dog liver microsomes; format: in vitro ADME
[6] = In vitro metabolic stability, rat liver microsomes; settings: 50 µM; LC-MS/MS metabolite identification

Structure (SMILES): COc1cc(C(=O)c2cc3ccc(F)cc3n2C)cc(OC)c1OC [13b, (6-Fluoro-1-methyl-1H-indol-2-yl)(3,4,5-trimethoxyphenyl)methanone]
- IC50 [1]: 1 to 10 µM

- IC50 (MDR cancer cell lines): 0.05 to 0.08 µM
- IC50 [2]: 0.05 to 0.08 µM
Structure (SMILES): COc1cc(C(=O)c2c[nH]c(-c3ccc(Br)cc3)n2)cc(OC)c1OC [8a, (2-(4-Bromophenyl)-1H-imidazol-4-yl)(3,4,5-trimethoxyphenyl)methanone]
- inhibition of tubulin polymerization at 10 µM (Bovine brain tubulin; 10 µM): Complete inhibition
- inhibition of tubulin polymerization at 20 µM (Bovine brain tubulin): Complete inhibition
- Resistance index (R) DU145-TxR (DU145-TxR; IC50 on DU145-TxR divided by IC50 on Du145): ≈ 1
- Resistance index (R) PC-3-TxR (PC-3-TxR): ≈ 1

Structure (SMILES): COc1cc(C(=O)c2cn(C)c(-c3ccc(C)cc3)n2)cc(OC)c1OC [3ab]
- metabolic pathway in human liver microsomes [3]: Hydroxylation on the para-methyl of the A ring was a major metabolic pathway; also recorded: Ketone reduction was only detected in human liver microsomes; also recorded: O-demethylation was a minor metabolic pathway
- metabolic pathway in mouse liver microsomes [4]: Hydroxylation on the para-methyl of the A ring was a major metabolic pathway; also recorded: O-demethylation was a minor metabolic pathway; also recorded: N-demethylation represented the major pathway
- IC50 (MDR cancer cell lines): 0.05 to 0.08 µM
- inhibition of tubulin polymerization at 20 µM (Bovine brain tubulin): Complete inhibition
- half-life in dog liver microsomes (in words) ([5]; 0.5 µM compound, 1 mg/mL microsomal protein, 37 °C): slightly longer half-life than that of compound 1a
- metabolic pathway in dog liver microsomes ([5]; 50 µM, LC-MS/MS metabolite identification): Hydroxylation on the para-methyl of the A ring was a major metabolic pathway; also recorded: O-demethylation was a minor metabolic pathway
- metabolic pathway in rat liver microsomes [6]: N-demethylation represented the major pathway; also recorded: Hydroxylation on the para-methyl of the A ring was a major metabolic pathway; also recorded: O-demethylation was a minor metabolic pathway
- IC50 [2]: 0.05 to 0.08 µM

Structure (SMILES): COc1cc(C(=O)c2c[nH]c(-c3ccc(Cl)cc3)n2)cc(OC)c1O [2c, (2-(4-Chlorophenyl)-1H-imidazol-4-yl)(4-hydroxy-3,5-dimethoxyphenyl)methanone]
- fold decrease in potency compared with parent compound [1]: 10-to 20 fold

Structure (SMILES): COc1cc(C(=O)c2cc3ccc(Cl)cc3n2C)cc(OC)c1OC [13aa, (6-Chloro-1-methyl-1H-indol-2-yl)(3,4,5-trimethoxyphenyl)methanone]
- IC50 [1]: 1 to 10 µM

- IC50 (MDR cancer cell lines): > 0.4 µM
- IC50 (DU145-TxR; Homo sapiens, read-out: IC50±SEM DU145-TxR): > 3 µM
Structure (SMILES): CC(=O)O[C@H]1C(=O)[C@@]2(C)[C@H]([C@H](OC(=O)c3ccccc3)[C@]3(O)C[C@H](OC(=O)[C@H](O)[C@@H](NC(=O)c4ccccc4)c4ccccc4)C(C)=C1C3(C)C)[C@]1(OC(C)=O)CO[C@@H]1C[C@@H]2O [Paclitaxel, reference compound]

Structure (SMILES): COc1cc(C(=O)c2c[nH]c(-c3ccc(C)cc3)n2)cc(OC)c1O [2a, (4-Hydroxy-3,5-dimethoxyphenyl)(2-(p-tolyl)-1H-imidazol-4-yl)methanone]
- fold decrease in potency compared with parent compound [1]: 10-to 20 fold

Structure (SMILES): COc1cc(C(=O)c2cn(Cc3ccccc3)c(-c3ccc(C)cc3)n2)cc(OC)c1OC [3aa, (1-Benzyl-2-(p-tolyl)-1H-imidazol-4-yl)(3,4,5-trimethoxyphenyl)methanone]
- fold decrease in potency compared with parent compound [1]: 90 fold

- IC50 [1]: 1 to 10 µM
Structure (SMILES): COc1cc(C(=O)c2cc3cc(F)ccc3[nH]2)cc(OC)c1OC [12f, (5-Fluoro-1H-indol-2-yl)(3,4,5-trimethoxyphenyl)methanone]
